Several values for one entry are separate records, joined by “and”; a condition that tells them apart may be missing. Equal entries are not always repeated. Where two headings read alike, the source gives them in different places.
Columns and labels:
thymidine kinase [TK(v)] = thymidine kinase [TK(v)] (Human herpesvirus 1, UniProt P0DTH5); settings: viral versus cellular thymidine kinase; cited from earlier work
[1] = test system: herpes simplex virus type 1 (HF strain); assay: 50% Tissue culture infective dose (TCID50), Read-Munch method, negative logarithm of virus dilution; type: cell-based
Method: In vitro antiviral activity of Compound A against herpes simplex virus type 1 (HF strain) Compound A was tested for antiviral effect by the following two methods.
The amount of virus infecting 50% of tissues (TCID₅₀) was determined by the Read-Munch method and expressed in negative logarithm of the maximum radio of dilution of virus. The difference of the amount thus determined from the amount found in the control (omitting the treatment with a chemical) was reported as ΔTCID₅₀. A sample whose ΔCPE's found on the last day of observation and on each of the days spent for the observation exceeded 1.0 was evaluated as effective.
In vitro antiviral effect of Compound A against herpes simplex virus type 1 (HF strain) The test was carried out by following the procedure of Example 3.

[2] = test system: herpes simplex virus type 2 (169 strain); assay: Control of CPE (cytopathic effect) manifestation in vero cells; type: cell-based; parameters: key to Cytopathic effect [CPE] (3days) Average / Cytopathic effect [CPE] (5days) Average / Cytopathic effect [CPE] (6days) Average: CPE score 0-3: 3 = ≥75% cells, 2 = 50%, 1 = 25%, 0 = none; key to Cytopathic effect [CPE] (3days) △CPE / Cytopathic effect [CPE] (5days) △CPE / Cytopathic effect [CPE] (6days) △CPE: difference of mean CPE score (0-3 scale) from untreated control; settings: HSV-2 (169); for Cytopathic effect [CPE] (3days) △CPE / Cytopathic effect [CPE] (5days) △CPE / Cytopathic effect [CPE] (6days) △CPE: difference from control
Method: Vero cells cultured and grown in a monolayer on microplates to test for cytopathic effect due to viral infection, with solutions of Compound A diluted to varying ratios and solutions of virus diluted to varying ratios added severally thereto in a volume of 0.1 ml, were cultured under the conditions of 5% CO₂ and 37°C and were examined for CPE manifestation under a microscope. The observation was continued for five to six days.
The degree of CPE brought about by viral infection was rated on the five-point scale, wherein 3 stands for CPE observed on not less than 75% of cultured cells, 2 for CPE observed on 50% of cultured cells, 1 for CPE observed on 25% of cultured cells, 0.5 for occurrence of one to two extremely minute DPE spots, and 0 for perfect absence of recognizable CPE. The CPE scores obtained at the four holes in each microplate were averaged and the difference of the average from the average obtained in the control (omitting the treatment with a chemical) was reported as ΔCPE.
In vitro antiviral activity of Compound A against herpes simplex virus type 2 (169 strain) The test was carried out by following the procedure of Example 3.

vero cells [3] = settings: african green monkey
Method: Compound A and Compound B were severally dissolved in distilled water in a concentration of 5 mg/ml, to prepare master solutions. Each of the master solutions was suitably diluted with an Eagle's MEM culture medium containing 10% fetal bovine serum. A 0.2-ml portion of the resultant dilution product was placed on vero cells cultured in advance on a microplate and grown in a monolayer, cultured further thereon at 37°C for three to five days. Samples taken severally after three days'and five days'culture were placed under a microscope and tested for cytopathogenic effect brought about by a chemical agent.

vero cells [4] = settings: control ratio on propagation of vero cells, 72hr
Method: Samples of the control group contained 0.1 ml of a culture solution (an Eagle's MEM culture medium containing 10% fetal bovine serum).
The test was conducted by using three culture tubes per group, culturing the cells in the tubes at 37°C for three days, and taking count of live cells by the dye-exclusion method.

[5] = 100 μg/ml, HSV-1 (HF strain), Example 5
[6] = 100 μg/ml, HSV-1 (HF), Example 3
[7] = 5 μg/ml, HSV-1 (HF), Example 3, difference from control
[8] = 10 μg/ml, HSV-1 (HF), Example 3
[9] = 10 μg/ml, HSV-1 (HF), Example 3, difference from control
[10] = 20 μg/ml, HSV-1 (HF), Example 3
[11] = 20 μg/ml, HSV-1 (HF), Example 3, difference from control
[12] = 50 μg/ml, HSV-1 (HF), Example 3
[13] = 50 μg/ml, HSV-1 (HF), Example 3, difference from control
[14] = 100 μg/ml, HSV-1 (HF strain), Example 5, difference from control
[15] = 100 μg/ml, HSV-1 (HF), Example 3, difference from control
[16] = 200 μg/ml, HSV-1 (HF strain), Example 5
[17] = 200 μg/ml, HSV-1 (HF strain), Example 5, difference from control

Sequence of thymidine kinase [TK(v)] (P0DTH5 whole entry): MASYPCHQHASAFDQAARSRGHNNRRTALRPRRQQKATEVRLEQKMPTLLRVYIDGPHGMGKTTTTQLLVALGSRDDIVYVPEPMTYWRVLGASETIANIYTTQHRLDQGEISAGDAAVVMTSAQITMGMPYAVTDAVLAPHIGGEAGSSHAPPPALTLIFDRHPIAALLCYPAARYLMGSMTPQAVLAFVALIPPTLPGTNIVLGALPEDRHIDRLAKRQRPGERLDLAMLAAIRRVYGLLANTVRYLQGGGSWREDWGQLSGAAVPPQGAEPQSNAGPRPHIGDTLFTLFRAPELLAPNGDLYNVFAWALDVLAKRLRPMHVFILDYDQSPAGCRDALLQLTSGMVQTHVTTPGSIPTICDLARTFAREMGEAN

Nc1nc2c(ncn2COCCO)c(=O)[nH]1 [ACV, acyclovir, reference compound]
affinity for TK(v) as for TK(c) (thymidine kinase [TK(v)]): more than 200 times
Cytopathic effect [CPE] (3days) TCID50 [1, 5]: 5.5
Cytopathic effect [CPE] (6days) TCID50 [1, 5]: 4.3
Cytopathic effect [CPE] (3days) TCID50 [1, 6]: 3.5
Cytopathic effect [CPE] (5days) TCID50 [1, 6]: 3.5
log reduction at 100 µg/mL ([1]; Human alphaherpesvirus 1, 72 h, read-out: Cytopathic effect [CPE] (3days) ΔTCID50): 0.8
log reduction at 100 µg/mL ([1]; Human alphaherpesvirus 1, 72 h, 100 μg/ml, HSV-1 (HF), Example 3, difference from control, read-out: Cytopathic effect [CPE] (3days) △TCID50): 2.5
log reduction at 100 µg/mL ([1]; Human alphaherpesvirus 1, 120 h, 100 μg/ml, HSV-1 (HF), Example 3, difference from control, read-out: Cytopathic effect [CPE] (5days) △TCID50): 2.5
log reduction at 100 µg/mL ([1]; Human alphaherpesvirus 1, 144 h, read-out: Cytopathic effect [CPE] (6days) ΔTCID50): 2
Cytopathic effect [CPE] (3days) Average ([2]; 100 μg/ml, Example 4): 0
Cytopathic effect [CPE] (5days) Average ([2]; 100 μg/ml, Example 4): 0
Cytopathic effect [CPE] (3days) △CPE ([2]; 100 μg/ml, Example 4): 1.5
Cytopathic effect [CPE] (5days) △CPE ([2]; 100 μg/ml, Example 4): 3.05
Cytopathic effect [CPE] (3days) Average ([2]; 100 μg/ml, Example 6): 0
Cytopathic effect [CPE] (6days) Average ([2]; 100 μg/ml, Example 6): 0
Cytopathic effect [CPE] (3days) △CPE ([2]; 100 μg/ml, Example 6): > 2.5
Cytopathic effect [CPE] (6days) △CPE ([2]; 100 μg/ml, Example 6): 3.0

K₅BW₁₂O₄₀.15H₂O [Compound A]
Cytopathic effect [CPE] (3days) TCID50 ([1]; 5 μg/ml, HSV-1 (HF), Example 3): 5.5
Cytopathic effect [CPE] (5days) TCID50 ([1]; 5 μg/ml, HSV-1 (HF), Example 3): 5.7
Cytopathic effect [CPE] (3days) △TCID50 [1, 7]: 0.5
Cytopathic effect [CPE] (5days) △TCID50 [1, 7]: 0.3
Cytopathic effect [CPE] (3days) TCID50 [1, 8]: 5.7
Cytopathic effect [CPE] (5days) TCID50 [1, 8]: 5.7
Cytopathic effect [CPE] (3days) △TCID50 [1, 9]: 0.3
Cytopathic effect [CPE] (5days) △TCID50 [1, 9]: 0.3
Cytopathic effect [CPE] (3days) TCID50 [1, 10]: 5.7
Cytopathic effect [CPE] (5days) TCID50 [1, 10]: 5.7
Cytopathic effect [CPE] (3days) △TCID50 [1, 11]: 0.3
Cytopathic effect [CPE] (5days) △TCID50 [1, 11]: 0.3
Cytopathic effect [CPE] (3days) TCID50 [1, 12]: 5.7
Cytopathic effect [CPE] (5days) TCID50 [1, 12]: 5.7
Cytopathic effect [CPE] (3days) △TCID50 [1, 13]: 0.3
Cytopathic effect [CPE] (5days) △TCID50 [1, 13]: 0.3
Cytopathic effect [CPE] (3days) TCID50 [1, 5]: 4.7
Cytopathic effect [CPE] (6days) TCID50 [1, 5]: 5.0
Cytopathic effect [CPE] (3days) ΔTCID50 [1, 14]: 1.6
Cytopathic effect [CPE] (6days) ΔTCID50 [1, 14]: 1.3
Cytopathic effect [CPE] (3days) TCID50 [1, 6]: 5.3
Cytopathic effect [CPE] (5days) TCID50 [1, 6]: 5.3
Cytopathic effect [CPE] (3days) △TCID50 [1, 15]: 0.7
Cytopathic effect [CPE] (5days) △TCID50 [1, 15]: 0.3
Cytopathic effect [CPE] (3days) TCID50 [1, 16]: <3.5
Cytopathic effect [CPE] (6days) TCID50 [1, 16]: <3.5
Cytopathic effect [CPE] (3days) ΔTCID50 [1, 17]: >2.8
Cytopathic effect [CPE] (6days) ΔTCID50 [1, 17]: > 2.8 and >2.5
ΔTCID₅₀ ([1]; varying concentrations of from 5 to 100 µg/ml, fifth day of observation, HSV-1 (HF), Example 3): 0.3
Cytopathic effect [CPE] (3days) Average ([2]; 5 μg/ml, Example 4): 1.0
Cytopathic effect [CPE] (5days) Average ([2]; 5 μg/ml, Example 4): 2.5
Cytopathic effect [CPE] (3days) △CPE ([2]; 5 μg/ml, Example 4): 0.5
Cytopathic effect [CPE] (5days) △CPE ([2]; 5 μg/ml, Example 4): 0.5
Cytopathic effect [CPE] (3days) Average ([2]; 10 μg/ml, Example 4): 1.0
Cytopathic effect [CPE] (5days) Average ([2]; 10 μg/ml, Example 4): 2.0
Cytopathic effect [CPE] (3days) △CPE ([2]; 10 μg/ml, Example 4): 0.5
Cytopathic effect [CPE] (5days) △CPE ([2]; 10 μg/ml, Example 4): 1.0
Cytopathic effect [CPE] (3days) Average ([2]; 20 μg/ml, Example 4): 1.0
Cytopathic effect [CPE] (5days) Average ([2]; 20 μg/ml, Example 4): 1.25
Cytopathic effect [CPE] (3days) △CPE ([2]; 20 μg/ml, Example 4): 0.5
Cytopathic effect [CPE] (5days) △CPE ([2]; 20 μg/ml, Example 4): 1.75
Cytopathic effect [CPE] (3days) Average ([2]; 50 μg/ml, Example 4): 0.5
Cytopathic effect [CPE] (5days) Average ([2]; 50 μg/ml, Example 4): 0.5
Cytopathic effect [CPE] (3days) △CPE ([2]; 50 μg/ml, Example 4): 1.0
Cytopathic effect [CPE] (5days) △CPE ([2]; 50 μg/ml, Example 4): 2.5
Cytopathic effect [CPE] (3days) Average ([2]; 100 μg/ml, Example 4): 0
Cytopathic effect [CPE] (5days) Average ([2]; 100 μg/ml, Example 4): 0
Cytopathic effect [CPE] (3days) △CPE ([2]; 100 μg/ml, Example 4): 1.5
Cytopathic effect [CPE] (5days) △CPE ([2]; 100 μg/ml, Example 4): 3.05
Cytopathic effect [CPE] (3days) Average ([2]; 100 μg/ml, Example 6): 0
Cytopathic effect [CPE] (6days) Average ([2]; 100 μg/ml, Example 6): 0
Cytopathic effect [CPE] (3days) △CPE ([2]; 100 μg/ml, Example 6): 2.5
Cytopathic effect [CPE] (6days) △CPE ([2]; 100 μg/ml, Example 6): 3.0
Cytopathic effect [CPE] (3days) Average ([2]; 200 μg/ml, Example 6): 0
Cytopathic effect [CPE] (6days) Average ([2]; 200 μg/ml, Example 6): 0
Cytopathic effect [CPE] (3days) △CPE ([2]; 200 μg/ml, Example 6): 2.5
Cytopathic effect [CPE] (6days) △CPE ([2]; 200 μg/ml, Example 6): 3.0
maximum nontoxic doses (MNTD) (vero cells [3]): > 200 µg/mL
Cellular toxity (3 days) Maximum nontoxic does (vero cells [3]; 72 h): >200 µg/mL
Cellular toxity (5 days) Maximum nontoxic does (vero cells [3]; 120 h): >200 µg/mL
Ratio (%) (vero cells [4]; 100 μg/ml): absolutely no effect
Ratio (%) (vero cells [4]; 200 μg/ml): absolutely no effect

— patent EP0450065A1, “ANTIVIRAL AGENT” (priority 1988, dated 1990)
